Data: PubChem BioAssay (NCI)
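Assay format: 96-well plates, 48-hour exposure. Here, GI50 denotes the concentration required for 50% inhibition of growth. Definition used: TGI = concentration required for complete inhibition of growth.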

Assays:
Assay in all cases: growth of human tumour cells (NCI), 48 h
[1] = tested on: 786-0 renal
[2] = tested on: A498 renal
[3] = tested on: A549 NSCLC
[4] = tested on: ACHN renal
[5] = tested on: IGROV1 ovarian
[6] = tested on: MDA-N
[7] = tested on: NCI-H460 lung
[8] = tested on: OVCAR-5 ovarian
[9] = tested on: OVCAR-8 ovarian
[10] = tested on: SF-295 CNS
[11] = tested on: SNB-19 CNS

Compound	TGI [1] [µM]	TGI [2] [µM]	TGI [3] [µM]	TGI [4] [µM]	TGI [5] [µM]	TGI [6] [µM]	TGI [7] [µM]	TGI [8] [µM]	TGI [9] [µM]	TGI [10] [µM]	TGI [11] [µM]	GI50 [2] [µM]	GI50 [3] [µM]	GI50 [4] [µM]	GI50 [5] [µM]	GI50 [7] [µM]	GI50 [8] [µM]	GI50 [9] [µM]	GI50 [10] [µM]
CCc1n[nH]c(=O)n1CCCCCCCCCCCCn1c(CC)n[nH]c1=O	> 100	> 100	> 100	> 100	> 100	> 100	71.9	> 100	> 100	> 100	> 100	–	–	–	–	–	–	–	–
CN1CCC(CNc2cc(C3(C(=O)Nc4cc(C(=O)Nc5ccc(Cl)c(C(F)(F)F)c5)ccc4F)CC3)ncn2)CC1	–	7.87	5.54	4.98	6.19	–	5.38	11.4	14.9	–	–	2.52	2.29	2.16	2.17	2.13	3.28	3.72	–
CN(C)CCNc1ccc2c(=O)n(CCN(C)C)c(=O)n3c4ccc(O)cc4c(=O)c1c23	0.156	0.515	1.47	< 0.01	0.53	0.26	0.174	2.34	0.358	0.148	0.729	–	–	–	–	–	–	–	–
Cn1c(=O)c2c(nc3n(CC(O)CCl)c(=O)ccn23)n(C)c1=O (stereo not drawn)	> 100	> 100	> 100	> 100	> 100	> 100	> 100	> 100	> 100	> 100	> 100	–	–	–	–	–	–	–	–
NC(=O)Nc1c(Cl)cc(S(N)(=O)=O)cc1Cl	> 100	–	> 100	–	> 100	> 100	–	> 100	> 100	> 100	> 100	–	–	–	–	–	–	–	–
O=c1[nH]c(Nc2ccccc2)nc2c1ncn2CC(O)CSCCO (stereo not drawn)	> 100	> 100	> 100	> 100	> 100	> 100	> 100	> 100	> 100	> 100	> 100	–	–	–	–	–	–	–	–
C#CCNC(CSSCC(N)C(=O)O)C(=O)O (stereo not drawn)	> 100	> 100	> 100	> 100	> 100	> 100	–	> 100	> 100	> 100	> 100	–	–	–	–	–	–	–	–
O=c1[nH]c2nc3ccccc3c(=O)n2/c1=C/c1ccc(Cl)cc1	> 100	–	> 100	> 100	–	59.5	–	> 100	58.6	> 100	79.8	–	–	–	–	–	–	–	–
O=C(/C=C(/C=C/c1ccc2[nH]ccc2c1)OB(F)F)/C=C/c1ccc2[nH]ccc2c1	–	6.71	–	7.57	–	–	–	> 100	> 100	> 100	–	2.61	–	2.52	–	–	2.75	2.51	2.28
Cc1ccc2c(c1)-c1nc(N)c(C#N)c(-c3ccc(Cl)cc3)c1CCS2(=O)=O	> 100	92.1	> 100	> 100	> 100	> 100	> 100	–	> 100	–	> 100	–	–	–	–	–	–	–	–
CCn1nc(C)c2c1C(=O)NCC(=O)N2	–	> 100	> 100	> 100	> 100	> 100	> 100	> 100	> 100	> 100	> 100	–	–	–	–	–	–	–	–
COC1CC(N)(c2ccccc2)C(O)C(C)O1 (stereo not drawn)	> 100	> 100	> 100	> 100	> 100	> 100	> 100	> 100	> 100	> 100	> 100	–	–	–	–	–	–	–	–
CC(N=NNc1ccc(-c2nc3ccccc3[nH]2)cc1)C(=O)O (stereo not drawn)	89.9	> 100	> 100	> 100	> 100	> 100	79	> 100	> 100	72.1	> 100	–	–	–	–	–	–	–	–
O=c1[nH]/c(=C/c2ccc(OCc3ccccc3)cn2)c(=O)[nH]/c1=C/c1ccccc1	> 100	> 100	> 100	> 100	> 24.6	–	> 100	> 100	> 80.9	> 100	> 100	–	–	–	–	–	–	–	–
Cc1ccc(C(=N)c2ccccc2Cc2cccc3ccccc23)c2ccccc12	> 100	> 100	> 100	> 100	> 100	–	> 100	> 100	> 100	> 100	> 100	–	–	–	–	–	–	–	–
COc1cc(/C=C2\C(=O)N(c3cccc([N+](=O)[O-])c3)C(c3ccccc3)S2(=O)=O)cc(OC)c1OC (stereo not drawn)	> 100	> 100	> 100	> 100	> 100	> 100	> 100	> 100	> 100	> 100	> 100	–	–	–	–	–	–	–	–
COc1ccc2c(c1)C(=O)CC1c3cnccc3C(=O)N21 (stereo not drawn)	> 100	> 100	> 100	> 100	> 100	> 100	> 100	> 100	> 100	> 100	> 100	–	–	–	–	–	–	–	–
CC(=O)NC1C(OCc2ccccc2)OC(CO)C(O)C1OCC(=O)N1CCCC1C(=O)N[C@@H](CCC(=O)NCCCCNc1c2ccccc2nc2cccc([N+](=O)[O-])c12)C(N)=O (stereo partly drawn)	> 100	> 100	37.8	> 100	50.6	30.6	61.4	88.5	> 100	> 100	62.4	–	–	–	–	–	–	–	–
CCCCCOc1ccc(C=Nc2ccc(CCc3ccc(N=Cc4ccc(OCCCCC)cc4)cc3)cc2)cc1	–	> 100	> 100	–	> 100	–	> 100	> 100	> 100	> 100	> 100	–	–	–	–	–	–	–	–
CC1CC[C@@]2(OC1)OC1C[C@H]3[C@@H]4CC=C5CC(OC6OC(CO)C(OC7OC(CO)C(O)C(OC8OCC(O)C(O)C8O)C7OC7OC(CO)C(OC8OC(C)C(OC9OC(C)C(O)C(O)C9O)C(O)C8O)C(O)C7O)C(O)C6O)CCC5(C)[C@H]4CCC3(C)C1[C@@H]2C (stereo partly drawn)	10.3	8.7	14.5	9.92	16.6	16.2	20.2	14.3	19.4	13.8	11.6	–	–	–	–	–	–	–	–
c1ccc(-c2csc3c4ccccc4c4ccccc4[n+]23)cc1	21	33.4	19.5	30.6	31.3	–	10.2	35.8	17.9	16	7.52	–	–	–	–	–	–	–	–

Compound	TGI [1] [µM]	TGI [2] [µM]	TGI [3] [µM]	TGI [4] [µM]	TGI [5] [µM]	TGI [6] [µM]	TGI [7] [µM]	TGI [8] [µM]	TGI [9] [µM]	TGI [10] [µM]	TGI [11] [µM]	GI50 [2] [µM]	GI50 [3] [µM]	GI50 [4] [µM]	GI50 [5] [µM]	GI50 [7] [µM]	GI50 [8] [µM]	GI50 [9] [µM]	GI50 [10] [µM]
COc1ccc(N2CC(=O)N(C(=O)COc3ccc(OCC(=O)N4C(=O)CN(c5ccc(OC)cc5)C4=S)cc3)C2=S)cc1	> 100	> 100	> 100	> 100	> 100	> 100	> 100	> 100	–	> 100	> 100	–	–	–	–	–	–	–	–
C[C@@]1(O)C2CC3CC1(c1ccccc1)CC(/C3=N/O)/C2=N\O (stereo partly drawn)	> 100	> 100	> 100	> 100	> 100	–	> 100	> 100	> 100	> 100	> 100	–	–	–	–	–	–	–	–
Cc1ccc2nc(SCC(=O)N=Nc3c(O)[nH]c4ccccc34)n(-c3ccccc3)c(=O)c2c1	29.5	28.1	28.6	26.7	–	37.6	29	29.3	–	29.5	40.6	–	–	–	–	–	–	–	–
CCCCN(CCCC)Cc1cc(Nc2ccnc3cc(Cl)ccc23)ccc1O	–	–	> 100	–	> 100	–	–	–	> 100	–	–	–	19.8	–	7.36	–	–	9.03	–
C=CCC1(C#N)C(=S)NC2=C(C(=O)CC(C)(C)C2)C1c1ccccc1 (stereo not drawn)	> 100	–	> 100	–	> 100	> 100	–	> 100	53.1	–	> 100	–	–	–	–	–	–	–	–
CC(C)(C)c1ccc(OCCOc2ccc(C(C)(C)C)cc2N)c(N)c1	> 100	> 100	> 100	> 100	> 100	–	> 100	> 100	> 100	> 100	> 100	–	–	–	–	–	–	–	–
Cc1ccc(C)c(NC(=O)C(=O)C(C(=O)c2ccc3ccccc3c2)C2OC(=O)c3ccccc32)c1 (stereo not drawn)	–	47.4	45.7	87.1	40.5	–	27.7	42.5	20.3	66.2	31.2	–	–	–	–	–	–	–	–
COC(=O)C1(NC(=O)C(CC(=O)OCc2ccccc2)NC(=O)OCc2ccccc2)CCCCCC1 (stereo not drawn)	> 100	–	> 100	> 100	> 100	61.4	> 100	> 100	90.5	> 100	> 100	–	–	–	–	–	–	–	–
CC(=O)Nc1ccc2c(C)c3c(nc2n1)[nH]c1ccccc13	> 100	> 100	> 100	59.6	71.4	44	49	> 100	87.6	78.8	–	–	–	–	–	–	–	–	–
Cc1ccc(S(=O)(=O)NC(=O)Nc2nnc(S(N)(=O)=O)s2)cc1	> 100	> 100	> 100	> 100	–	–	> 100	> 100	> 100	> 100	> 100	–	–	–	–	–	–	–	–
Nc1n(CC(=O)c2ccccc2)nc2sc(-c3ccccc3)n[n+]12	48.4	86.9	90.6	29.6	56.6	–	30.5	> 100	38.8	55	> 100	–	–	–	–	–	–	–	–
O=S1(=O)c2ccccc2Oc2ccc(C(/C=N/O)=N/O)cc21	> 100	–	> 100	> 100	68.9	–	> 100	> 100	47.7	51.2	–	–	–	–	–	–	–	–	–
COc1ccc([C@H]2[C@H]3COC(=O)[C@H]3C(C#N)=C3Sc4ccccc4N32)cc1	> 100	98.3	> 100	> 100	–	> 74.4	> 100	> 100	> 100	> 90.8	> 100	–	–	–	–	–	–	–	–
CCO/C(=N/S(=O)(=O)C(F)(F)F)N(C(C)C)C(C)C	> 100	> 100	> 100	> 100	> 100	> 100	> 100	> 100	> 100	–	> 100	–	–	–	–	–	–	–	–
O=C1[C@H](O)[C@@H]2C(O)O[C@H]3[C@@H]2N1C[C@H]3[Si](c1ccccc1)(c1ccccc1)c1ccccc1 (stereo partly drawn)	> 100	> 100	> 100	> 100	> 100	–	> 100	> 100	> 100	> 100	> 100	–	–	–	–	–	–	–	–
CCN(CCCOc1ccccc1)CCN(CC)CCCOc1ccccc1	50.7	–	28.7	31.5	23.5	–	34.9	38.9	38	41	23.4	–	–	–	–	–	–	–	–
C1=C(c2ccccc2)SC(N2CCCCC2)S1 (stereo not drawn)	–	> 100	–	–	> 100	–	> 100	> 100	–	> 100	> 100	–	–	–	–	–	–	–	–
C=CCn1c(=O)c(C)cn(COCCO)c1=O	–	–	> 100	> 100	> 100	> 100	> 100	> 100	> 100	–	> 100	–	–	–	–	–	–	–	–
Cn1c(=O)c2[nH]c(N/N=N/c3nncs3)nc2n(C)c1=O	> 100	> 100	> 100	> 100	> 100	–	> 100	> 100	> 100	> 100	> 100	–	–	–	–	–	–	–	–
CCOC(=O)c1ccc(-n2[nH]nc(C(N)=O)c2=O)cc1	> 100	–	> 100	> 100	> 100	> 100	> 100	> 100	> 100	> 100	> 100	–	–	–	–	–	–	–	–
